From US20250122181A1, “BENZIMIDAZOLES AS MODULATORS OF IL-17” (Janssen Pharmaceutica NV, priority 2021, published 2025)

Each compound was assayed on IL-17A-induced G-CSF production in human normal keratinocyte (NHK) (assay: NHK Assay: IL-17A-induced G-CSF production in human normal keratinocyte). Details: Homo sapiens, Keratinocyte, 24 h, IL-17A 5 ng/mL, simple average if tested more than once.
Type: cell-based
Description: IL-17A acts directly on keratinocytes through binding to dimeric receptor IL-17RA/RC and drives the production of a number of inflammatory mediators known to be elevated in psoriasis lesional tissue. IL-17A small molecule inhibitors that block the IL-17A to interact with IL-17R would inhibit the IL-17A signaling in its targeted cells such as keratinocytes. The compound functional activity is evaluated for its impact on IL-17A-induced G-CSF production in human normal keratinocyte (NHK).
Adult normal human keratinocytes are cultured in keratinocyte growth medium (Lonza) in a flask till reaching ˜90% confluence, then cells are transferred to a 384-well plate at density of 3000-4000 cell/well. Recombinant human IL-17A (Gibco PHC9174) is pre-incubated with titrated compound or DMSO for 1 h at rt then added to the cell culture plate. The final concentration of IL-17A is 5 ng/mL and DMSO is 0.2%, in the culture containing 5% FBS. Cells are cultured/treated for 24 h at 37° C. Supernatants are collected and G-CSF production is measured through HTRF technology using Human G-CSF Kit (CisBio). G-CSF concentration was extrapolated from the standard curve and IC50 is determined using GraphPad Prism. Cell viability is also evaluated using CellTiter-Glo kit (Promega) and effect of compound on cell viability is compared to DMSO control.
In the case of `CO[C@@H](CC(F)(F)F)[C@H](NC(=O)c1nonc1C)c1nc2cc(CN3C[C@@H](C(F)(F)F)NC3=O)ccc2[nH]1` (relative stereo) [Example 91, 4-Methyl-N-((1R*,2S*)-4,4,4-trifluoro-2-methoxy-1-(5-(((S)-2-oxo-4-(trifluoromethyl)imidazolidin-1-yl)methyl)-1H-benzo[d]imidazol-2-yl)butyl)-1,2,5-oxadiazole-3-carboxamide], the IC50 is reported as under 50 nM.
For `[2H]C1([2H])NC(=O)N([C@@H](c2ccc3[nH]c([C@H](COC(C)(C)C(F)(F)F)NC(=O)c4nonc4C4CC4)nc3c2)C2CC2)CC1(F)F` [Example 82, 4-Cyclopropyl-N-[(1R)-1-[5-[(R)-cyclopropyl-(4,4-dideuterio-5,5-difluoro-2-oxo-hexahydropyrimidin-1-yl)methyl]-1H-benzimidazol-2-yl]-2-(2,2,2-trifluoro-1,1-dimethyl-ethoxy)ethyl]-1,2,5-oxadiazole-3-carboxamide], the IC50 was under 50 nM.
Compound `[2H]C1([2H])N([C@@H](c2ccc3nc([C@H](COC(C)(C)C(F)(F)F)NC(=O)c4nonc4C4CC4)[nH]c3c2)C2CC2)C(=O)NCC1(F)F` [Example 76, 4-Cyclopropyl-N—((R)-1-(5-((R)-cyclopropyl(5,5-difluoro-2-oxotetrahydropyrimidin-1(2H)-yl-6,6-d2)methyl)-1H-benzo[d]imidazol-2-yl)-2-((1,1,1-trifluoro-2-methylpropan-2-yl)oxy)ethyl)-1,2,5-oxadiazole-3-carboxamide] has an IC50 of under 50 nM.
Work on `Cc1nonc1C(=O)N[C@H](c1nc2cc([C@@H](COC3CC3)N3CC(F)(F)CNC3=O)ccc2[nH]1)[C@@H](C)O[C@@H](C)C(F)(F)F` [Example 66, N-((1R,2R)-1-(5-((S)-2-Cyclopropoxy-1-(5,5-difluoro-2-oxotetrahydropyrimidin-1(2H)-yl)ethyl)-1H-benzo[d]imidazol-2-yl)-2-(((S)-1,1,1-trifluoropropan-2-yl)oxy)propyl)-4-methyl-1,2,5-oxadiazole-3-carboxamide] yielded an IC50 of under 50 nM.
For `COC[C@H](c1ccc2[nH]c([C@@H](NC(=O)c3nonc3C3CC3)[C@@H](C)OC3CC3)nc2c1)N1CC(F)(F)CNC1=O` [Example 43, N-((1R,2R)-2-Cyclopropoxy-1-(5-((S)-1-(5,5-difluoro-2-oxotetrahydropyrimidin-1(2H)-yl)-2-methoxyethyl)-1H-benzo[d]imidazol-2-yl)propyl)-4-cyclopropyl-1,2,5-oxadiazole-3-carboxamide], the IC50 was under 50 nM.
`COCC(c1ccc2[nH]c([C@H](COC(C)(C)C(F)(F)F)NC(=O)c3nonc3C)nc2c1)N1C[C@@](C)(C(F)(F)F)NC1=O` (single isomer, unassigned) [Example 63, N—((R)-1-(5-((R*)-2-Methoxy-1-((S)-4-methyl-2-oxo-4-(trifluoromethyl)imidazolidin-1-yl)ethyl)-1H-benzo[d]imidazol-2-yl)-2-((1,1,1-trifluoro-2-methylpropan-2-yl)oxy)ethyl)-4-methyl-1,2,5-oxadiazole-3-carboxamide] showed an IC50 of under 50 nM.
Work on `C[C@H](O[C@H](C)[C@H](NC(=O)c1nonc1C1CC1)c1nc2cc([C@@H](COC3CC3)N3CC(F)(F)CNC3=O)ccc2[nH]1)C(F)(F)F` [Example 67, N-((1R,2R)-1-(5-((S)-2-Cyclopropoxy-1-(5,5-difluoro-2-oxotetrahydropyrimidin-1(2H)-yl)ethyl)-1H-benzo[d]imidazol-2-yl)-2-(((S)-1,1,1-trifluoropropan-2-yl)oxy)propyl)-4-cyclopropyl-1,2,5-oxadiazole-3-carboxamide] yielded an IC50 of under 50 nM.
`[2H]C1([2H])NC(=O)N([C@@H](c2ccc3[nH]c([C@H](COC(C)(C)C(F)(F)F)NC(=O)c4ccnn4C(C)C)nc3c2)C2CC2)C([2H])([2H])C1(F)F` [Example 79, N—((R)-1-(5-((R)-Cyclopropyl(5,5-difluoro-2-oxotetrahydropyrimidin-1(2H)-yl-4,4,6,6-d4)methyl)-1H-benzo[d]imidazol-2-yl)-2-((1,1,1-trifluoro-2-methylpropan-2-yl)oxy)ethyl)-1-isopropyl-1H-pyrazole-5-carboxamide] showed an IC50 of under 50 nM.
Compound `COC[C@H](c1ccc2[nH]c([C@@H](NC(=O)c3nonc3C)[C@@H](C)OC3CC3)nc2c1)N1CC(F)(F)CNC1=O` [Example 65, N-((1R,2R)-2-Cyclopropoxy-1-(5-((S)-1-(5,5-difluoro-2-oxotetrahydropyrimidin-1(2H)-yl)-2-methoxyethyl)-1H-benzo[d]imidazol-2-yl)propyl)-4-methyl-1,2,5-oxadiazole-3-carboxamide] has an IC50 of under 50 nM.
`[2H]C1([2H])NC(=O)N([C@@H](c2ccc3[nH]c([C@H](COC(C)(C)C(F)(F)F)NC(=O)c4nonc4C)nc3c2)C2CC2)C([2H])([2H])C1(F)F` [Example 80, N—((R)-1-(5-((R)-Cyclopropyl(5,5-difluoro-2-oxotetrahydropyrimidin-1(2H)-yl-4,4,6,6-d4)methyl)-1H-benzo[d]imidazol-2-yl)-2-((1,1,1-trifluoro-2-methylpropan-2-yl)oxy)ethyl)-4-methyl-1,2,5-oxadiazole-3-carboxamide] gave an IC50 of under 50 nM.
Work on `CO[C@@H](CC(F)(F)F)[C@H](NC(=O)c1nonc1C1CC1)c1nc2cc(CN3C[C@@H](C(F)(F)F)NC3=O)ccc2[nH]1` (relative stereo) [Example 46, 4-Cyclopropyl-N-((1R*,2S*)-4,4,4-trifluoro-2-methoxy-1-(5-(((S)-2-oxo-4-(trifluoromethyl)imidazolidin-1-yl)methyl)-1H-benzo[d]imidazol-2-yl)butyl)-1,2,5-oxadiazole-3-carboxamide] yielded an IC50 of under 50 nM.
For `C[C@H](O[C@H](C)[C@H](NC(=O)c1nonc1C1CC1)c1nc2cc([C@@H](COC3CC3)N3C[C@@H](C(F)(F)F)NC3=O)ccc2[nH]1)C(F)(F)F` [Example 68, N-((1R,2R)-1-(5-((S)-2-Cyclopropoxy-1-((S)-2-oxo-4-(trifluoromethyl)imidazolidin-1-yl)ethyl)-1H-benzo[d]imidazol-2-yl)-2-(((S)-1,1,1-trifluoropropan-2-yl)oxy)propyl)-4-cyclopropyl-1,2,5-oxadiazole-3-carboxamide], the IC50 was under 50 nM.
With `[2H]C1([2H])N([C@@H](c2ccc3nc([C@H](COC(C)(C)C(F)(F)F)NC(=O)c4nonc4C)[nH]c3c2)C2CC2)C(=O)NCC1(F)F` [Example 77, N—((R)-1-(5-((R)-Cyclopropyl(5,5-difluoro-2-oxotetrahydropyrimidin-1(2H)-yl-6,6-d2)methyl)-1H-benzo[d]imidazol-2-yl)-2-((1,1,1-trifluoro-2-methylpropan-2-yl)oxy)ethyl)-4-methyl-1,2,5-oxadiazole-3-carboxamide] the IC50 was under 50 nM.
`Cc1nonc1C(=O)N[C@H](c1nc2ccc(CN3C[C@@H](C(F)(F)F)NC3=O)c(F)c2[nH]1)[C@@H](C)O[C@H](C)C(F)(F)F` [Example 92, N-[(1R,2R)-1-[7-Fluoro-6-[[(4S)-2-oxo-4-(trifluoromethyl)imidazolidin-1-yl]methyl]-1H-benzimidazol-2-yl]-2-[(1R)-2,2,2-trifluoro-1-methyl-ethoxy]propyl]-4-methyl-1,2,5-oxadiazole-3-carboxamide] was tested, and the IC50 was under 50 nM.
Work on `CO[C@H](CC(F)(F)F)[C@H](NC(=O)c1nonc1C)c1nc2cc(CN3C[C@@H](C(F)(F)F)NC3=O)ccc2[nH]1` (relative stereo) [Example 90, 4-Methyl-N-((1R*,2R*)-4,4,4-trifluoro-2-methoxy-1-(5-(((S)-2-oxo-4-(trifluoromethyl)imidazolidin-1-yl)methyl)-1H-benzo[d]imidazol-2-yl)butyl)-1,2,5-oxadiazole-3-carboxamide] yielded an IC50 of over 100 nM.
With `Cc1nonc1C(=O)N[C@H](c1nc2c(F)cc([C@@H](C3CC3)N3C[C@@H](C(F)(F)F)NC3=O)cc2[nH]1)[C@@H](C)O[C@H](C)C(F)(F)F` [Example 86, N-[(1R,2R)-1-[6-[(R)-Cyclopropyl-[(4S)-2-oxo-4-(trifluoromethyl)imidazolidin-1-yl]methyl]-4-fluoro-1H-benzimidazol-2-yl]-2-[(1R)-2,2,2-trifluoro-1-methyl-ethoxy]propyl]-4-methyl-1,2,5-oxadiazole-3-carboxamide] the IC50 was under 50 nM.
For `COC[C@H](c1ccc2[nH]c([C@@H](NC(=O)c3nonc3C3CC3)[C@@H](C)OC3CC3)nc2c1)N1C[C@@H](C(F)(F)F)NC1=O` [Example 42, N-((1R,2R)-2-Cyclopropoxy-1-(5-((S)-2-methoxy-1-((S)-2-oxo-4-(trifluoromethyl)imidazolidin-1-yl)ethyl)-1H-benzo[d]imidazol-2-yl)propyl)-4-cyclopropyl-1,2,5-oxadiazole-3-carboxamide], the IC50 was under 50 nM.

Same assay, conditions: IL-17A 5 ng/mL, 24 h, simple average if tested more than once
`Cc1nonc1C(=O)N[C@@H](COC(C)(C)C(F)(F)F)c1nc2cc([C@@H](C3CC3)N3CC(CC(F)(F)F)NC3=O)ccc2[nH]1` (single isomer, unassigned) [Example 89, N—((R)-1-(5-((R)-Cyclopropyl((S*)-2-oxo-4-(2,2,2-trifluoroethyl)imidazolidin-1-yl)methyl)-1H-benzo[d]imidazol-2-yl)-2-((1,1,1-trifluoro-2-methylpropan-2-yl)oxy)ethyl)-4-methyl-1,2,5-oxadiazole-3-carboxamide] showed an IC50 of over 100 nM.
